≈ marks a conversion by molar mass, not a printed value.
Key:
Format in all cases: functional, cell-based
[1] = test system: A549; assay: Cytotoxicity against human A549 cells
[2] = test system: P388; assay: Cytotoxicity against mouse P388 cells
[3] = test system: HT-29; assay: Cytotoxicity against human HT-29 cells

With `C=C[C@H]1CC[C@H]2[C@@H]3CC[C@@H]4[C@@H](O[C@@H]5O[C@@H](C)[C@@H](O)[C@@H](OC)[C@@H]5OC(C)=O)[C@@H](O)CC[C@]4(C)[C@H]3CC[C@]12C` [VERRUCOSIDE] the IC50 [1] was 7.2 µg/mL (≈ 13.8 µM), the IC50 [2] was 5.9 µg/mL (≈ 11.3 µM) and the IC50 [3] was 6.3 µg/mL (≈ 12.1 µM).

— ChEMBL document CHEMBL1150206, “Verrucoside, a new cytotoxic pregnane glycoside from a gorgonian Eunicella verrucosa” (J Nat Prod, 1991)
